Measured values published in patent US12097235B2, “Anti-acne pharmaceutical compositions” (priority 2018, dated 2024).
Converted amounts (≈) assume the structure as drawn.

What was measured:
MMP-9 enzyme = target: T1, MMP-9 enzyme (Homo sapiens, UniProt P14780); experiment: Matrix metalloproteinase-9 assay (colorimetric kit); assay type: biochemical; settings: at 0.411 μg/ml, single concentration
T1 construct: purchased Enzo Life Sciences BML-AK410
Method: The MMP-9 Colorimetric Drug Discovery Kit (BML-AK410) from Enzo Life Sciences was used. The experiment was carried out as described in the instruction manual. The MMP chromogenic substrate (Ac-PLG-[2-mercapto-4-methyl-pentanoyl]-LG-OC2H5) and the inhibitor N-Isobutyl-N-(4-methoxyphenylsulfonyl)glycyl hydroxamic acid (NNGH) was thawed to room temperature. The inhibitor was diluted 1/200 in assay buffer (50 mM HEPES, 10 mM CaCl2, 0.05% Brij-35, 1 mM DTNB, pH 7.5) and warmed until 37° C. The substrate was diluted 1/25 in assay buffer to the required volume. The MMP-9 enzyme was diluted in assay buffer to 1/60 and warmed until 37° C. just before the assay. The plant extract was dissolved in dimethyl sulfoxide (DMSO) to a starting concentration of 2 mg/ml.
In the plant extract wells, 50 μl of plant extract and 90 μl of buffer was added to the first well of the 96 well plate (½ volume). To the rest of the plant extract wells, 70 μl of buffer was added and the plant extracts serially diluted. Assay buffer was plated in the rest of the relevant wells as follows: blank 90 μl, control 70 μl, and NNGH 50 μl. […] The plates were continuously read at A412nm by using a BIO-TEK Power Wave Multiwell plate reader (A.D.P., Weltevreden Park, South Africa) at one (1) minute intervals for twenty (20) minutes using KC Junior software (Highland Park, Winooski, Vermont, USA).

[1] = DPPH radical scavenging assay; assay type: biochemical
Method: The antioxidant activities of Plectranthus […] ethanolic extract was investigated using 1,1-Diphenyl-2-picrylhydrazyl (DPPH) free radical scavenging assay as described by Mavundza (Mavundza, 2010). To the top wells of a 96-well ELISA plate 200 μl of distilled water was added and to the remaining wells 110 μl of distilled water as a medium. Twenty microliters of plant extract and the controls was added to the first top wells that followed a double dilution. To each of the wells 90 μl of 90 μM DPPH ethanolic solution was added and left to incubate covered with aluminium foil for 30 minutes at room temperature. The final concentrations for the Plectranthus […] ethanolic extracts ranged from 3.9 to 500 μg/ml (Mavundza, 2010). […] The radical scavenging capacities of the extracts were determined by using a BIO-TEK Power Wave Multiwell plate reader ([…], South Africa) at 515 nm using KC Junior software (Highland Park, Winooski, Vermont, USA) to measure the disappearance of DPPH at 515 nm. The radical scavenging activity was determined as a percentage DPPH radical-scavenging that was calculated by the following equation, where AC is the absorbance of the control solution that only contains DPPH and AS is the absorbance of the plant sample in DPPH solution: % DPPH radical-scavenging=(AC-AS)/AC×100 […]

[2] = NO antioxidant (nitric oxide scavenging) assay; assay type: biochemical
[3] = system: COX-2 protein levels in HT-29 cells; settings: at 3.6 μg/ml; cited from earlier work
[4] = system: Cutibacterium acnes (ATCC 6919); experiment: Antibacterial assay (MIC, broth microdilution, Presto Blue); assay type: cell-based; settings: ATCC6919, C. acnes ATCC 6919, 72 hours, anaerobic, read-out: minimum inhibitory concentration (MIC)
Method: The ethanolic extract of Plectranthus […] tested against Cutibacterium acnes (ATCC 6919). The C. acnes bacteria was cultured from a Kwik-Stick on mouse heart and brain agar and then incubated at 37° C. for 72 hours under anaerobic conditions before the assay was done. The 72 hour old bacterial culture was dissolved in brain heart infusion broth and the suspension was adjusted to a 0.5 McFarland standard turbidity. This led to 10^5-10^6 colony forming units (CFU)/ml. In a sterile 96-well plate, 100 μl of the samples from the stock solution that consisted of the plant extracts (2 mg/ml dissolved in 10% dimethyl sulphoxide (DMSO)) and tetracycline the positive control (0.2 mg/ml) was diluted with broth. Twofold serial dilutions were done in broth over a range to give the concentrations 500-3.9 μg/ml for the plant extract and 50-0.3 μg/ml for tetracycline. To all the wells of the 96-well plate, 100 μl of bacterial suspension was added. The solvent control wells contained 2.5% DMSO with bacterial suspension and no plant samples and the negative control, bacterial suspension with no plant samples. The plates were incubated at 37° C. for 72 hours under anaerobic conditions.

T1 sequence (P14780 107-444 limits assumed): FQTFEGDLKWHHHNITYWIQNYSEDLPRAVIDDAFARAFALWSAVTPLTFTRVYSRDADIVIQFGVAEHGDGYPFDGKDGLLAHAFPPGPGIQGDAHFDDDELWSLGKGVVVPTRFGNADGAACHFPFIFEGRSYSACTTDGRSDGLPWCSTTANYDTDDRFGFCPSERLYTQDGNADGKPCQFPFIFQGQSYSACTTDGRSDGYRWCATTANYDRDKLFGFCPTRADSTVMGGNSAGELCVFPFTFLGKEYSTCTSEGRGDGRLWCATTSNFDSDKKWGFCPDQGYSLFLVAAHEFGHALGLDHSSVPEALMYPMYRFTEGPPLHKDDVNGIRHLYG

Structure (SMILES): COc1ccc(S(=O)(=O)N(CC(=O)NO)CC(C)C)cc1 [positive control, N-Isobutyl-N-(4-methoxyphenylsulfonyl)glycyl hydroxamic acid]
- MMP-9 inhibition (MMP-9 enzyme): 96%

Structure (SMILES): O=C1O[C@H]([C@@H](O)CO)C(O)=C1O [vitamin C, L-ascorbic acid]
- DPPH antioxidant activity IC50 [1]: 9.0 ± 2.0 µg/mL
- nitric oxide (NO) antioxidant activity IC50 [2]: 65.8 ± 5.9 µg/mL

Structure (SMILES): O=C(/C=C/c1ccc(O)c(O)c1)O[C@H](Cc1ccc(O)c(O)c1)C(=O)O [rosmarinic acid]
- effect on COX-2 protein levels [3]: reduced COX-2 protein levels in HT-29 cells to levels comparable to that of the control cells

Structure (SMILES): CN(C)[C@@H]1C(O)=C(C(N)=O)C(=O)[C@@]2(O)C(O)=C3C(=O)c4c(O)cccc4[C@@](C)(O)[C@H]3C[C@@H]12 [tetracycline]
- MIC [4]: 0.78 µg/mL (≈ 1.76 µM)

Structure (SMILES): O=c1cc(-c2ccc(O)c(O)c2)oc2cc(O)cc(O)c12 [Luteolin]
- MIC [4]: 62.5 µg/mL (≈ 218 µM)
